# US20170273901A1, “SUNITINIB FORMULATIONS AND METHODS FOR USE THEREOF IN TREATMENT OF OCULAR DISORDERS” (THE JOHNS HOPKINS UNIVERSITY, priority 2014, published 2017)
# Assays:
# [1] = Drug ocular retention in vivo after SC injection (autofluorescence imaging of eyeballs); design: species or system Sprague Dawley rats; conditions: rat eye
# Procedure: At post injection (PI) day 0, 1, 3, 7, 14 and 28, the whole eyeballs (n=4) were harvested after the animals were sacrificed. […] The fluorescent images were analyzed using the Living Image 3.0 software (Caliper Lifesciences, Inc.), and the retention of sunitinib was quantified by comparing to the fluorescence counts of the eye immediately undertaken SC injection. Rat eyes without SC injection were used as the baseline.
# [2] = Solubility of sunb-malate in PBS; type: physicochemical
# corneal NV = assay: Treatment of suture-induced corneal NV, quantitative analysis of NV area and length; type: in vivo, Sprague Dawley rats; conditions: single SC injection 30 μL, 5 mg sunb-malate/mL; POD 5, 7, 14
# From the text: Corneal NV was induced by intrastromal suturing. […] The distance between the stitch and the limbus was approximately 2 mm while there was a distance of 1 mm between the two stitches. […] Erythromycin antibiotic ointment was applied to prevent potential infection and corneal dry-up. The rats were followed for 2 weeks. The corneas of all rats were examined by slit-lamp biomicroscope (SL120; Carl Zeiss AG, Oberkochen, Germany) and corneal photographs were taken with a digital camera. The area and length of vascularized cornea were quantified with Photoshop CS3.0. The arc was drawn along the limbus, the vascularized area pixel measured and the corneal NV area was calculated using the following equation: The vascularized area was evenly divided into six sections. The distance between vessel tips and the limbus at the five intersection points of the arc was measured. The average of the five measured lengths was regarded as the corneal NV length.
smiles,measurement,setting,value
"CCN(CC)CCNC(=O)c1c(C)[nH]c(/C=C2\C(=O)Nc3ccc(F)cc32)c1C.O=C(O)C[C@H](O)C(=O)O [Sunb-malate free drug, Sunitinib malate]",time to clearance after SC injection,[1]; 30 μL of 5 mg/mL,≤ 1 days
same,time to almost no drug retention in the eye,[1]; SC injection,≤ 24 h
same,concentration dissolved in PBS,[2],at least 25 mg/mL
same,inhibition of corneal NV (length and area),corneal NV,negligible effect
